According to patent US8022209B2, “Substituted nitrogen-containing heteroaryl derivatives useful as modulators of the histamine H4 receptor” (Janssen Pharmaceutica NV, priority 2007, dated 2011):

Target: T1, human histamine H4 receptor (Homo sapiens, UniProt Q9H3N8)
T1 construct: expressed in transfected cells; host or cells: SK-N-MC cells or COS7 cells, transiently transfected with pH4R; cell membranes
Assay: Binding Assay on Recombinant Human Histamine H4 Receptor
Settings: competition binding vs 3H-histamine (5 nM, KD 5 nM), membranes of SK-N-MC or COS7 cells transfected with human H4R; Cheng-Prusoff; average of results obtained
Method: Binding Assay on Recombinant Human Histamine H4 Receptor
SK-N-MC cells or COS7 cells were transiently transfected with pH4R and grown in 150 cm^2 tissue culture dishes. Cells were washed with saline solution, scraped with a cell scraper and collected by centrifugation (1000 rpm, 5 min). Cell membranes were prepared by homogenization of the cell pellet in 20 mM Tris-HCl with a polytron tissue homogenizer for 10 sec at high speed. Homogenate was centrifuged at 1000 rpm for 5 min at 4° C. The supernatant was then collected and centrifuged at 20,000×g for 25 min at 4° C. The final pellet was resuspended in 50 mM Tris-HCl. Cell membranes were incubated with ^3H-histamine (5-70 nM) in the presence or absence of excess histamine (10,000 nM). Incubation occurred at room temperature for 45 min. Membranes were harvested by rapid filtration over Whatman GF/C filters and washed 4 times with ice-cold 50 mM Tris HCl. Filters were then dried, mixed with scintillant and counted for radioactivity. SK-N-MC or COS7 cells expressing human histamine H4 receptor were used to measure the affinity of binding of other compounds and their ability to displace ^3H-ligand binding by incubating the above-described reaction in the presence of various concentrations of inhibitor or compound to be tested. For competition binding studies using ^3H-histamine, Ki values were calculated, based on an experimentally determined KD value of 5 nM and a ligand concentration of 5 nM, according to Y. C.

Compound | Ki
CN1CCN(c2ncnc(-c3ccc(-c4ccccc4)cc3)n2)CC1 [compound 116, 2-Biphenyl-4-yl-4-(4-methyl-piperazin-1-yl)-[1,3,5]triazine] | > 10000 nM
Cc1ccc(-c2cc(N3CCN(C)CC3)ccn2)cc1Cl [compound 37] | 65 nM
Cc1ccc(-c2cc(N3CCN(C)CC3)ccn2)cc1 [compound 32] | 129 nM
CN1CCC(N(C)c2ccnc(-c3ccsc3)c2)C1 (centres unmarked) [compound 40] | 867 nM
CN1CCN(c2ccnc(-c3cccc(Cl)c3Cl)c2)CC1 [compound 35] | 130 nM
CN1CCN(c2ncnc(-c3cc(Cl)cs3)n2)CC1 [compound 151, 2-(4-Chloro-thiophen-2-yl)-4-(4-methyl-piperazin-1-yl)-[1,3,5]triazine] | 137 nM
CN1CCN(c2ccnc(-c3ccc(F)c(F)c3)c2)CC1 [compound 34] | 90 nM
COc1cscc1-c1ncnc(N2CCN(C)CC2)n1 [compound 130, 2-(4-Methoxy-thiophen-3-yl)-4-(4-methyl-piperazin-1-yl)-[1,3,5]triazine] | 643 nM
CN1CCN(c2ncnc(-c3cccc(C#N)c3)n2)CC1 [compound 111, 3-[4-(4-Methyl-piperazin-1-yl)-[1,3,5]triazin-2-yl]-benzonitrile] | 2010 nM
Cc1nc(-c2sccc2Br)nc(N2CCN(C)CC2)n1 [compound 23, 2-(3-Bromo-thiophen-2-yl)-4-methyl-6-(4-methyl-piperazin-1-yl)-[1,3,5]triazine] | 31 nM
CN1CCN(c2ncnc(-c3ccc([N+](=O)[O-])cc3)n2)CC1 [compound 121, 2-(4-Methyl-piperazin-1-yl)-4-(4-nitro-phenyl)-[1,3,5]triazine] | 107 nM
CN1CCN(c2ncnc(-c3ccc(F)c(F)c3)n2)CC1 [compound 5, 2-(3,4-Difluoro-phenyl)-4-(4-methyl-piperazin-1-yl)-[1,3,5]triazine] | 33 nM
CN1CCN(c2ncnc(-c3ccc(-c4ccccn4)s3)n2)CC1 [compound 131, 2-(4-Methyl-piperazin-1-yl)-4-(5-pyridin-2-yl-thiophen-2-yl)-[1,3,5]triazine] | > 10000 nM
CN(C)C1CCN(c2ccnc(-c3ccsc3)c2)C1 (centres unmarked) [compound 42] | 767 nM
CN1CCN(c2ccnc(-c3csc(C#N)c3)c2)CC1 [compound 129] | 443 nM
CN1CCN(c2ccnc(-c3ccoc3)c2)CC1 [compound 28] | 25 nM
CN1CCN(c2ccnc(-c3ccc(-c4cccs4)s3)c2)CC1 [compound 145] | 268 nM
CN1CCN(c2ccnc(-c3ccsc3)c2)CC1 [compound 26] | 37 nM
CN1CCN(c2ccnc(-c3cccc(-c4ccccc4)c3)c2)CC1 [compound 38] | 52 nM
CN1CCCN(c2cc(-c3cccs3)ncn2)CC1 [compound 68] | 397 nM
Cc1cc(-c2ncnc(N3CCN(C)CC3)n2)c(C(F)(F)F)o1 [compound 22, 2-(4-Methyl-piperazin-1-yl)-4-(5-methyl-2-trifluoromethyl-furan-3-yl)-[1,3,5]triazine] | 757 nM
CN1CCN(c2ccnc(-c3cccc(O)c3)c2)CC1 [compound 33] | 577 nM
CN1CCN(c2ccnc(-c3ccc(F)c(Cl)c3)c2)CC1 [compound 30] | 138 nM
Cc1cscc1-c1cc(N2CCN(C)CC2)ccn1 [compound 29] | 64 nM
CN(C)CCN(C)c1ccnc(-c2ccsc2)c1 [compound 41] | 2600 nM
Cc1nc(-c2cc(F)c(F)c(F)c2)nc(N2CCN(C)CC2)n1 [compound 147, 2-Methyl-4-(4-methyl-piperazin-1-yl)-6-(3,4,5-trifluoro-phenyl)-[1,3,5]triazine] | 193 nM
CN1CCN(c2ncnc(-c3cc(Br)cs3)n2)CC1 [compound 9] | 22 nM
CN1CCN(c2ncnc(-c3cc(F)cc(F)c3)n2)CC1 [compound 137, 2-(3,5-Difluoro-phenyl)-4-(4-methyl-piperazin-1-yl)-[1,3,5]triazine] | 78 nM
CN1CCN(c2ccnc(-c3cccc(-c4ccc(C(=O)N5CCOCC5)cc4)c3)c2)CC1 [compound 63] | ≥ 10000 nM
Cc1ccc(-c2cc(N3CCN(C)CC3)ccn2)cc1F [compound 31] | 75 nM

The next lines start with the values.

Ki | Compound
35 nM | CN1CCN(c2ncnc(-c3ccc(F)cc3)n2)CC1 [compound 12, 2-(4-Fluoro-phenyl)-4-(4-methyl-piperazin-1-yl)-[1,3,5]triazine]
76 nM | CN1CCN(c2ncnc(-c3cccs3)n2)CC1 [compound 2, 2-(4-Methyl-piperazin-1-yl)-4-thiophen-2-yl-[1,3,5]triazine]
66 nM | CN1CCN(c2ncnc(-c3ccc(Cl)s3)n2)CC1 [compound 25, 2-(5-Chloro-thiophen-2-yl)-4-(4-methyl-piperazin-1-yl)-[1,3,5]triazine]
2330 nM | CN1CCN(c2ncnc(-c3cc4ccccc4s3)n2)CC1 [compound 21, 2-Benzo[b]thiophen-2-yl-4-(4-methyl-piperazin-1-yl)-[1,3,5]triazine]
73 nM | CN1CCN(c2ncnc(-c3cccc(C(F)(F)F)c3)n2)CC1 [compound 8, 2-(4-Methyl-piperazin-1-yl)-4-(3-trifluoromethyl-phenyl)-[1,3,5]triazine]
52 nM | Cc1ccsc1-c1ncnc(N2CCN(C)CC2)n1 [compound 140, 2-(4-Methyl-piperazin-1-yl)-4-(3-methyl-thiophen-2-yl)-[1,3,5]triazine]
10 nM | CN1CCN(c2ncnc(-c3ccc(Cl)cc3)n2)CC1 [compound 13, 2-(4-Chloro-phenyl)-4-(4-methyl-piperazin-1-yl)-[1,3,5]triazine]
8 nM | CN1CCN(c2ncnc(-c3sccc3Cl)n2)CC1 [compound 17, 2-(3-Chloro-thiophen-2-yl)-4-(4-methyl-piperazin-1-yl)-[1,3,5]triazine]
75 nM | Cc1ccc(-c2ncnc(N3CCN(C)CC3)n2)cc1 [compound 4, 2-(4-Methyl-piperazin-1-yl)-4-p-tolyl-[1,3,5]triazine]
44 nM | CN1CCN(c2ncnc(-c3ccsc3)n2)CC1 [compound 1, 2-(4-Methyl-piperazin-1-yl)-4-thiophen-3-yl-[1,3,5]triazine]
347 nM | CN1CCN(c2ncnc(-c3csc4ccccc34)n2)CC1 [compound 144, 2-Benzo[b]thiophen-3-yl-4-(4-methyl-piperazin-1-yl)-[1,3,5]triazine]
36 nM | CN1CCN(c2ncnc(-c3ccc(Br)cc3)n2)CC1 [compound 10, 2-(4-Bromo-phenyl)-4-(4-methyl-piperazin-1-yl)-[1,3,5]triazine]
50 nM | CN1CCN(c2ncnc(-c3ccc(Cl)nc3)n2)CC1 [compound 16, 2-(6-Chloro-pyridin-3-yl)-4-(4-methyl-piperazin-1-yl)-[1,3,5]triazine]
128 nM | CN1CCN(c2ncnc(-c3ccccc3)n2)CC1 [compound 118, 2-(4-Methyl-piperazin-1-yl)-4-phenyl-[1,3,5]triazine]
94 nM | CN1CCN(c2ncnc(-c3ccc(F)cc3F)n2)CC1 [compound 122, 2-(2,4-Difluoro-phenyl)-4-(4-methyl-piperazin-1-yl)-[1,3,5]triazine]
37 nM | CN1CCN(c2ncnc(-c3ccc(Br)s3)n2)CC1 [compound 18, 2-(5-Bromo-thiophen-2-yl)-4-(4-methyl-piperazin-1-yl)-[1,3,5]triazine]
30 nM | CN1CCN(c2ncnc(-c3ccc(Cl)c(Cl)c3)n2)CC1 [compound 14, 2-(3,4-Dichloro-phenyl)-4-(4-methyl-piperazin-1-yl)-[1,3,5]triazine]
87 nM | CN1CCN(c2ncnc(-c3cccc(F)c3)n2)CC1 [compound 7, 2-(3-Fluoro-phenyl)-4-(4-methyl-piperazin-1-yl)-[1,3,5]triazine]
79 nM | Cc1ccsc1-c1ncnc(N2CCN(C)CC2)n1 [compound 136]
2 nM | CN1CCN(c2ncnc(-c3sccc3Br)n2)CC1 [compound 15, 2-(3-Bromo-thiophen-2-yl)-4-(4-methyl-piperazin-1-yl)-[1,3,5]triazine]
172 nM | CN1CCN(c2ncnc(-c3cccnc3)n2)CC1 [compound 19, 2-(4-Methyl-piperazin-1-yl)-4-pyridin-3-yl-[1,3,5]triazine]
950 nM | CN1CCN(c2ncnc(-c3ccncc3)n2)CC1 [compound 20, 2-(4-Methyl-piperazin-1-yl)-4-pyridin-4-yl-[1,3,5]triazine]
111 nM | Cc1cc(-c2ncnc(N3CCN(C)CC3)n2)ccc1F [compound 115, 2-(4-Fluoro-3-methyl-phenyl)-4-(4-methyl-piperazin-1-yl)-[1,3,5]triazine]
857 nM | CN1CCN(c2ncnc(-c3ccccn3)n2)CC1 [compound 139, 2-(4-Methyl-piperazin-1-yl)-4-pyridin-2-yl-[1,3,5]triazine]
115 nM | CN1CCN(c2ncnc(-c3ccoc3)n2)CC1 [compound 6, 2-Furan-3-yl-4-(4-methyl-piperazin-1-yl)-[1,3,5]triazine]
22 nM | Cc1ccc(-c2ncnc(N3CCN(C)CC3)n2)cc1F [compound 3, 2-(3-Fluoro-4-methyl-phenyl)-4-(4-methyl-piperazin-1-yl)-[1,3,5]triazine]
